The experiment has as its target T1, GIPR (CHO-K1-hGIPR cells) (Homo sapiens, UniProt P48546).
T1 construct: host or cells: CHO-K1
T1 sequence (P48546 22-466): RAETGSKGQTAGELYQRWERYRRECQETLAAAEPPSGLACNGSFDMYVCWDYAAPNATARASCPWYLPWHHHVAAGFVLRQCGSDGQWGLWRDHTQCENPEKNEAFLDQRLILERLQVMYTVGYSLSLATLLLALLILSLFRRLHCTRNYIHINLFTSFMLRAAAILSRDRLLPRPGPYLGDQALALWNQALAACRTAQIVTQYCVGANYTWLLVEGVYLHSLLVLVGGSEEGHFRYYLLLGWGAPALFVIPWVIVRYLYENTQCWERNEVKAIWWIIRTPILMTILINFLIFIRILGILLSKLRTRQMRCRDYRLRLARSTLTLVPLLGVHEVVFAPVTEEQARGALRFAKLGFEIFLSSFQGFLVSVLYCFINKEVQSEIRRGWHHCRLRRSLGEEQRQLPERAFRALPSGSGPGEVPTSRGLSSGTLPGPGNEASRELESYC
The experiment in a line: FACS binding assay. The note with it: competition with 20 nM GIP-057, 4° C., 1 hour. Summed up:
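CHO-K1 cells stably expressing human GIPR were detached with Accutase, suspended at 500.000 cells per mL in PBS with 1% FCS, and washed ice-cold. Bound peptide was detected with 1 μg/mL APC-streptavidin for 30 min on ice.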
Background: Flow cytometry measures light scatter and fluorescence of single cells or particles in a stream.

The mark [1] stands for this setting: read-out: pIC50 Category (converted).

Read-outs that look alike come from different tables or passages of the source. *1 amine or outer side, *2 acyl side, *3 side chain or, on linkers, in order; H or OH if unused. Where a SMILES comes first, the peptide text is derived from it. Bridges are numbered along the chain shown (N, C = ends). [ ]: non-standard residue; d: D form. The star is where a group is joined. X14 = NC(=O)[C@H](CCCCNC(=O)CN1CCN2CCN3CCN(CC1)CC(=O)[O][In]([O]C(=O)C2)[O]C(=O)C3)NC(=O)CCC(=O)NCCCOCCOCCOCCCN*; X13 = O=C(CN1CCN2CCN3CCN(CC1)CC(=O)[O][Lu]([O]C(=O)C2)[O]C(=O)C3)NCCCOCCOCCOCCCN*; DOTA(In) = O=C1CN2CCN3CCN(CC(=O)*)CCN(CC2)CC(=O)[O][In]([O]1)[O]C(=O)C3; Trp(5-Cl) = N[C@@H](Cc1c[nH]c2ccc(Cl)cc12)C(=O)O; Pyridine(2,6-diCH2) = c1cc(C[*:1])nc(C[*:2])c1; 1Nal = N[C@@H](Cc1cccc2ccccc12)C(=O)O; mXylylene = c1cc(C[*:1])cc(C[*:2])c1; X6 = c1cc(CSCCN[*:2])nc(C[*:1])c1; Hyp = O=C(O)[C@@H]1C[C@@H](O)CN1; X1 = O=C(CN1CCC(N[*:1])CC1)[*:2]; Suc = O=C(CCC(=O)[*:2])[*:1]; Ac6c = NC1(C(=O)O)CCCCC1; Thp = NC1(C(=O)O)CCOCC1; Aib = CC(C)(N)C(=O)O

On to `CC[C@H](C)[C@@H]1NC(=O)[C@H](CC(C)C)NC(=O)C(C)(C)NC(=O)[C@@H](NC(=O)[C@@H](CC(C)C)NC(=O)[C@H](CCC(=O)O)NC(=O)[C@@H]2CCCN2C(=O)[C@H](Cc2c[nH]c3ccc(Cl)cc23)NC(=O)[C@H](Cc2c[nH]c3ccccc23)NC(=O)[C@H](CC(=O)O)NC(=O)CCC(=O)NCCCOCCOCCOCCCNC(=O)CN2CCN3CCN4CCN(CC2)CC(=O)[O][Lu]([O]C(=O)C3)[O]C(=O)C4)CSCc2cccc(n2)CSCCNC1=O` [GIP-163, LuDOTA-Ttds-Asp-Trp-5Clw-Pro-Glu-leu-[Cys(2Lut)-Aib-Leu-Ile-AET]] ({X13-Suc}-DW[Trp(5-Cl)]PE[dL]C[Aib]LI; linker 7-C via X6), for which the IC50 (pIC50 Category) was under 0.01 µM.
In the case of `CC[C@H](C)[C@@H]1NC(=O)[C@H](CC(C)C)NC(=O)C(C)(C)NC(=O)[C@@H](NC(=O)[C@@H](CC(C)C)NC(=O)[C@H](CCC(=O)O)NC(=O)[C@@H]2CCCN2C(=O)[C@H](Cc2c[nH]c3ccc(Cl)cc23)NC(=O)[C@H](Cc2c[nH]c3ccccc23)NC(=O)[C@H](CC(=O)O)NC(C)=O)CSCc2cccc(c2)CSC[C@@H](C(=O)NCCCOCCOCCOCCCNC(=O)CCC(=O)N[C@@H](CCCCNC(=O)CN2CCN3CCN4CCN(CC2)CC(=O)[O][In]([O]C(=O)C3)[O]C(=O)C4)C(N)=O)NC1=O` [GIP-164, Ac-Asp-Trp-5Clw-Pro-Glu-leu-[Cys(3MeBn)-Aib-Leu-Ile-Cys]-Ttds-Lys(InDOTA)-NH2] (Ac-DW[Trp(5-Cl)]PE[dL]C[Aib]LIC-X14; linker 7-11 via mXylylene), the IC50 under setting [1] is under 0.01 µM.
Turning to `CC[C@H](C)[C@@H]1NC(=O)[C@H](CC(C)C)NC(=O)C(C)(C)NC(=O)[C@@H](NC(=O)[C@@H](CC(C)C)NC(=O)[C@H](CCC(=O)O)NC(=O)[C@@H]2CCCN2C(=O)[C@H](Cc2cccc3ccccc23)NC(=O)[C@H](Cc2c[nH]c3ccccc23)NC(=O)[C@H](CC(=O)O)NC(C)=O)CSCc2cccc(c2)CSC[C@@H](C(=O)NCCCOCCOCCOCCCNC(=O)CCC(=O)N[C@@H](CCCCNC(=O)CN2CCN3CCN4CCN(CC2)CC(=O)[O][In]([O]C(=O)C3)[O]C(=O)C4)C(N)=O)NC1=O` [GIP-165, Ac-Asp-Trp-1Ni-Pro-Glu-leu-[Cys(3MeBn)-Aib-Leu-Ile-Cys]-Ttds-Lys(InDOTA)-NH2] (Ac-DW[1Nal]PE[dL]C[Aib]LIC-X14; linker 7-11 via mXylylene), the IC50 under setting [1] is under 0.01 µM.
Same read-out and setting: for `CC[C@H](C)[C@@H]1NC(=O)[C@H](CC(C)C)NC(=O)C2(CCCCC2)NC(=O)[C@@H](NC(=O)[C@@H](CC(C)C)NC(=O)[C@H](CCC(=O)O)NC(=O)[C@@H]2CCCN2C(=O)[C@H](Cc2cccc3ccccc23)NC(=O)[C@H](Cc2c[nH]c3ccccc23)NC(=O)[C@H](CC(=O)O)NC(C)=O)CSCc2cccc(c2)CSC[C@@H](C(=O)NCCCOCCOCCOCCCNC(=O)CCC(=O)N[C@@H](CCCCNC(=O)CN2CCN3CCN4CCN(CC2)CC(=O)[O][In]([O]C(=O)C3)[O]C(=O)C4)C(N)=O)NC1=O` [GIP-166, Ac-Asp-Trp-1Ni-Pro-Glu-leu-[Cys(3MeBn)-Egz-Leu-Ile-Cys]-Ttds-Lys(InDOTA)-NH2] (Ac-DW[1Nal]PE[dL]C[Ac6c]LIC-X14; linker 7-11 via mXylylene) the value was under 0.01 µM; for `CC[C@H](C)[C@@H]1NC(=O)[C@H](CC(C)C)NC(=O)C2(CCOCC2)NC(=O)[C@@H](NC(=O)[C@@H](CC(C)C)NC(=O)[C@H](CCC(=O)O)NC(=O)[C@@H]2C[C@@H](O)CN2C(=O)[C@H](Cc2c[nH]c3ccc(Cl)cc23)NC(=O)[C@H](Cc2c[nH]c3ccccc23)NC(=O)CCC(=O)O)CSCc2cccc(n2)CSC[C@@H](C(=O)NC2CCN(CC(=O)N[C@@H](CCCCNC(=O)CN3CCN4CCN5CCN(CC3)CC(=O)[O][In]([O]C(=O)C4)[O]C(=O)C5)C(N)=O)CC2)NC1=O` [GIP-168, HO-Succinyl-Trp-5Clw-Hyp-Glu-leu-[Cys(2Lut)-Thp-Leu-Ile-Cys]-APAc-Lys(InDOTA)-NH2] (Suc-W[Trp(5-Cl)][Hyp]E[dL]C[Thp]LIC[X1]K(DOTA(In))-NH2; linker 6-10 via Pyridine(2,6-diCH2)), under 0.01 µM.

The values are drawn from patent US20250296971A1, “GASTRIC INHIBITORY PEPTIDE RECEPTOR LIGANDS” (priority 2021, published 2025).
